Values after ≈ are worked out from the molar mass of the structure shown.
How the values were obtained:
Format in all cases: functional
[1] = system: Staphylococcus aureus; assay: Antibacterial activity against penicillin-resistant Staphylococcus aureus clinical isolate incubated for 24 hrs by CLSI protocol based broth microdilution method
[2] = system: Staphylococcus aureus; assay: Antibacterial activity against Staphylococcus aureus clinical isolate incubated for 24 hrs by CLSI protocol based broth microdilution method
[3] = system: Staphylococcus aureus; assay: Antibacterial activity against methicillin-resistant Staphylococcus aureus ATCC 43300 incubated for 24 hrs by CLSI protocol based broth microdilution method; details: ATCC 43300, 24 h
[4] = system: Staphylococcus aureus; assay: Antibacterial activity against Staphylococcus aureus ATCC 25923 incubated for 24 hrs by CLSI protocol based broth microdilution method; details: ATCC 25923, 24 h
[5] = system: Pseudomonas aeruginosa; assay: Antibacterial activity against Pseudomonas aeruginosa ATCC 27853 incubated for 24 hrs by CLSI protocol based broth microdilution method; details: ATCC 27853, 24 h
[6] = system: Bacillus pumilus; assay: Antibacterial activity against Bacillus pumilus CMCC63202 incubated for 24 hrs by CLSI protocol based broth microdilution method; details: CMCC63202, 24 h
[7] = system: Escherichia coli; assay: Antibacterial activity against Escherichia coli ATCC 25922 incubated for 24 hrs by CLSI protocol based broth microdilution method; details: ATCC 25922, 24 h
[8] = system: Bacillus subtilis; assay: Antibacterial activity against Bacillus subtilis ATCC 9372 incubated for 24 hrs by CLSI protocol based broth microdilution method; details: ATCC 9372, 24 h

| SMILES | MIC [1] [µg/mL] | MIC [2] [µg/mL] | MIC [3] [µg/mL] | MIC [4] [µg/mL] | MIC [5] [µg/mL] | MIC [6] [µg/mL] | MIC [7] [µg/mL] | MIC [8] [µg/mL] |
| --- | --- | --- | --- | --- | --- | --- | --- | --- |
| NC(=O)c1c(F)ccc(OCc2nn(Cc3ccc(Cl)cc3)c(=O)o2)c1F | > 64 | > 64 | 64 (≈ 162 µM) | > 64 | > 64 | 32 (≈ 80.9 µM) | > 64 | 8 (≈ 20.2 µM) |
| CCCCn1c(COc2ccc(F)c(C(N)=O)c2F)nn(-c2ccc(Br)cc2)c1=O | > 64 | – | > 64 | > 64 | > 64 | > 64 | > 64 | > 64 |
| NC(=O)c1c(F)ccc(OCCc2nn(-c3ccc(Br)cc3)c(=O)o2)c1F | 4 (≈ 9.09 µM) | 4 (≈ 9.09 µM) | 2 (≈ 4.54 µM) | 4 (≈ 9.09 µM) | > 64 | ≤ 0.125 | > 64 | 1 (≈ 2.27 µM) |
| CCCCc1ccc(N2N=C(COc3ccc(F)c(C(N)=O)c3F)CC2=O)cc1 | 64 (≈ 159 µM) | – | > 64 | > 64 | > 64 | > 64 | > 64 | > 64 |
| CC(C)(C)c1ccc(Cn2nc(COc3ccc(F)c(C(N)=O)c3F)oc2=O)cc1 | > 64 | > 64 | > 64 | > 64 | > 64 | 32 (≈ 76.7 µM) | > 64 | 32 (≈ 76.7 µM) |
| Cn1c(COc2ccc(F)c(C(N)=O)c2F)nn(-c2ccc(Br)cc2)c1=O | > 64 | – | > 64 | > 64 | > 64 | 1 (≈ 2.28 µM) | > 64 | 64 (≈ 146 µM) |
| COc1cccc(-n2nc(COc3ccc(F)c(C(N)=O)c3F)oc2=O)c1 | > 64 | 64 (≈ 170 µM) | > 64 | 64 (≈ 170 µM) | > 64 | > 64 | > 64 | 16 (≈ 42.4 µM) |
| NC(=O)c1c(F)ccc(OCc2nn(-c3cccc(Cl)c3)c(=O)o2)c1F | > 64 | > 64 | > 64 | > 64 | > 64 | > 64 | > 64 | 8 (≈ 21 µM) |
| NC(=O)c1c(F)ccc(OCc2nn(-c3ccc(Br)cc3)c(=O)n2N)c1F | > 64 | – | > 64 | > 64 | > 64 | 64 (≈ 145 µM) | > 64 | 16 (≈ 36.3 µM) |
| NC(=O)c1c(F)ccc(OCc2nn(-c3ccc(Cl)c(Cl)c3)c(=O)o2)c1F | > 64 | 64 (≈ 154 µM) | 64 (≈ 154 µM) | > 64 | > 64 | 4 (≈ 9.61 µM) | > 64 | 4 (≈ 9.61 µM) |
| CC(C)(C)c1ccc(-c2nn(COc3ccc(F)c(C(N)=O)c3F)c(=O)o2)cc1 | > 64 | > 64 | > 64 | > 64 | > 64 | 32 (≈ 79.3 µM) | > 64 | 8 (≈ 19.8 µM) |
| CN(C)n1c(COc2ccc(F)c(C(N)=O)c2F)nn(-c2ccc(Br)cc2)c1=O | 32 (≈ 68.3 µM) | – | 16 (≈ 34.2 µM) | 32 (≈ 68.3 µM) | > 64 | 32 (≈ 68.3 µM) | > 64 | 32 (≈ 68.3 µM) |
| NC(=O)c1c(F)ccc(OCc2nn(Cc3ccc(Br)cc3)c(=O)o2)c1F | > 64 | 64 (≈ 145 µM) | 64 (≈ 145 µM) | > 64 | > 64 | 32 (≈ 72.7 µM) | > 64 | 8 (≈ 18.2 µM) |
| Cc1ccc(-c2nn(COc3ccc(F)c(C(N)=O)c3F)c(=O)o2)cc1 | > 64 | > 64 | > 64 | > 64 | > 64 | > 64 | > 64 | > 64 |
| CC(C)CCn1c(COc2ccc(F)c(C(N)=O)c2F)nn(-c2ccc(Br)cc2)c1=O | > 64 | – | > 64 | > 64 | > 64 | > 64 | > 64 | > 64 |
| Cc1cc(Cl)ccc1-n1nc(COc2ccc(F)c(C(N)=O)c2F)oc1=O | 4 (≈ 10.1 µM) | 4 (≈ 10.1 µM) | 2 (≈ 5.05 µM) | 4 (≈ 10.1 µM) | > 64 | 0.5 (≈ 1.26 µM) | > 64 | 0.5 (≈ 1.26 µM) |
| Cc1ccc(-n2nc(COc3ccc(F)c(C(N)=O)c3F)oc2=O)cc1 | 4 (≈ 11.1 µM) | 4 (≈ 11.1 µM) | 4 (≈ 11.1 µM) | 4 (≈ 11.1 µM) | > 64 | 8 (≈ 22.1 µM) | > 64 | 0.5 (≈ 1.38 µM) |
| NC(=O)c1c(F)ccc(OCc2nn(-c3ccc(F)cc3)c(=O)o2)c1F | 16 (≈ 43.8 µM) | 2 (≈ 5.48 µM) | 8 (≈ 21.9 µM) | 16 (≈ 43.8 µM) | > 64 | 8 (≈ 21.9 µM) | > 64 | 2 (≈ 5.48 µM) |

Source: ChEMBL document CHEMBL4387753 (Bioorg Med Chem, 2019)
